Test results: ChEMBL document CHEMBL1154168, “New 2-aryloxy-3-phenyl-propanoic acids as peroxisome proliferator-activated receptors alpha/gamma dual agonists with improved potency and reduced adverse effects on skeletal muscle function” (J Med Chem, 2009)
Activity calls are given as the source filed them. The calls are words filed in the database; no cut-off is given here.

Experiments:
[1] = system: Extensor digitorum longus; assay: Inhibition of resting potassium conductance in Wistar rat extensor digitorum longus muscle by electrophysiology method; type: functional, tissue-based
[2] = biological target: T1, Peroxisome proliferator-activated receptor gamma (Homo sapiens, UniProt P37231)
T1 sequence (P37231 whole entry): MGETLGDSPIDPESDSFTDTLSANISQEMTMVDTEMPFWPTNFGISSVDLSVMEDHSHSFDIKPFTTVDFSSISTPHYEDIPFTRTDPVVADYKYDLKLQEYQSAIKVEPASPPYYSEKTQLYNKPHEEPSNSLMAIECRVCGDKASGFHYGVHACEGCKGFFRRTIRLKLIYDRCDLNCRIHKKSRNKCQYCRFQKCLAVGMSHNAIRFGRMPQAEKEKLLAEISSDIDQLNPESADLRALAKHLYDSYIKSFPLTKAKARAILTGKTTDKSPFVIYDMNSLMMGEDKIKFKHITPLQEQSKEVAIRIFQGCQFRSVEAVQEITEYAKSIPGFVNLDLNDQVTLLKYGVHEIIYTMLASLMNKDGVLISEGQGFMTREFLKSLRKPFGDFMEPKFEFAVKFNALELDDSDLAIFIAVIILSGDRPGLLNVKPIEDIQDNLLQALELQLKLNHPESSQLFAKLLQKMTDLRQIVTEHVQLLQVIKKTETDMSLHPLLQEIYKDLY

[3] = biological target: T2, Chloride channel isoform 1 (Rattus norvegicus) (UniProt Q7TT78); assay: Inhibition of CIC1 in Wistar rat extensor digitorum longus muscle assessed as decrease in resting chloride channel conductance at 50 uM by electrophysiology method; type: tissue-based; set-up: scale not given: the % may be the effect or the level left
T2 sequence (whole entry): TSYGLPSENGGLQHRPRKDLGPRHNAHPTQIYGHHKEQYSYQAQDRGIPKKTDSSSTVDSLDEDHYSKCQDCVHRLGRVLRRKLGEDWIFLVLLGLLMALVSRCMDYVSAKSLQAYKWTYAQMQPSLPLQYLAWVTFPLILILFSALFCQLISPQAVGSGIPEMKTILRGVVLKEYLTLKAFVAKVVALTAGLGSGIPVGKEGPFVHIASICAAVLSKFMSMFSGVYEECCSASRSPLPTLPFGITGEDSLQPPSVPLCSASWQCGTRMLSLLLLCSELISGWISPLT

[4] = biological target: T2, Chloride channel isoform 1 (Rattus norvegicus); assay: Inhibition of CIC1 in Wistar rat extensor digitorum longus muscle assessed as decrease in resting chloride channel conductance at 100 uM by electrophysiology method; type: tissue-based; set-up: scale not given: the % may be the effect or the level left
[5] = biological target: T3, Peroxisome proliferator-activated receptor alpha (Homo sapiens, UniProt Q07869); assay: Agonist activity at GAL4-tagged human PPARalpha ligand binding domain expressed in human HepG2 cells assessed as receptor transactivation by luciferase reporter gene assay; type: cell-based
T3 sequence (Q07869 whole entry): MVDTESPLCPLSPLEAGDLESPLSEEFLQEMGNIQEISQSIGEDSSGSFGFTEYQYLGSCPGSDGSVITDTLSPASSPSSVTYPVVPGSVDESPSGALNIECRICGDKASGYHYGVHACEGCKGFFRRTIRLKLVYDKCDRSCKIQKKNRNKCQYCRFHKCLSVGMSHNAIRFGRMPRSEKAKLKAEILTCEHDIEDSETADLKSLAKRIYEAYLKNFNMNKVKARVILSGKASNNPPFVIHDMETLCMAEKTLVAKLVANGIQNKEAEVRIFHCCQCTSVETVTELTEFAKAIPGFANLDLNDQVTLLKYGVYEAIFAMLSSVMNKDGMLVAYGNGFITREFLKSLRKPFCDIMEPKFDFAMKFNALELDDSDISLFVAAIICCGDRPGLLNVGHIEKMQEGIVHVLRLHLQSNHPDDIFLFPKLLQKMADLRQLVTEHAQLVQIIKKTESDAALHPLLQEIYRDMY

[6] = biological target: T4, Peroxisome proliferator-activated receptor alpha (Homo sapiens) (UniProt Q07869); assay: Agonist activity at GAL4-tagged human PPARalpha ligand binding domain expressed in human HepG2 cells assessed as receptor transactivation by luciferase reporter gene assay relative to Wy-14643; type: cell-based
T4 sequence (whole entry): T3 sequence (Q07869 whole entry)

[7] = biological target: T2, Chloride channel isoform 1 (Rattus norvegicus); assay: Inhibition of CIC1 in Wistar rat extensor digitorum longus muscle assessed as decrease in resting chloride channel conductance at 5 uM by electrophysiology method; type: tissue-based; set-up: scale not given: the % may be the effect or the level left
[8] = biological target: T1, Peroxisome proliferator-activated receptor gamma; conditions: hepg2

| Structure (SMILES) | EC50 [2] | EC50 ([5]; read-out: EC50) | Efficacy [6] | also measured |
| --- | --- | --- | --- | --- |
| O=C(O)[C@H](Cc1ccccc1)Oc1ccc(Cc2ccccc2)cc1 | 572 nM | 11.5 nM | – | Activity [1]: inactive; Activity [3]: 2%; Activity [4]: 9% |
| O=C(O)[C@H](Cc1ccccc1)Oc1ccc(CCc2ccccc2)cc1 | 400 nM | – | – | Activity [1]: inactive; Activity [4]: 24% |
| O=C(O)[C@@H](Cc1ccccc1)Oc1ccc(CCc2ccccc2)cc1 | 1600 nM | – | inactive | EC50 ([5]; hepg2): Not Active |
| O=C(O)[C@@H](Cc1ccccc1)Oc1ccc(Cc2ccccc2)cc1 | 5700 nM | 2400 nM | 82% | – |
| CC(C)(Oc1ccc(C(=O)c2ccc(Cl)cc2)cc1)C(=O)O | – | – | – | Activity [4]: 11% |
| CC(C)(Oc1ccc(Cl)cc1)C(=O)O | – | – | – | Activity [4]: 28% |
| O=C(O)[C@H](Cc1ccccc1)Oc1ccc(-c2ccccc2)cc1 | – | – | 116% | Activity [1]: inactive; Activity [7]: 2%; Activity [4]: 12% |
| O=C(O)C(Cc1ccccc1)Oc1ccc(OCc2ccccc2)cc1 (racemic) | 2400 nM | 107 nM | 112% | – |
| O=C(O)C(Cc1ccccc1)Oc1ccc(COc2ccccc2)cc1 (racemic) | 3000 nM | 600 nM | 107% | – |
| O=C(O)C(Cc1ccccc1)Oc1ccc(Cc2ccccc2)cc1 (racemic) | 580 nM | 15.9 nM | 115% | – |
| O=C(O)C(Cc1ccccc1)Oc1ccc(CSc2ccccc2)cc1 (racemic) | 400 nM | 310 nM | 92% | – |
| O=C(O)C(Cc1ccccc1)Oc1ccc(SCc2ccccc2)cc1 (racemic) | 1400 nM | 488 nM | 134% | – |
| O=C(Cc1ccccc1)c1ccc(OC(Cc2ccccc2)C(=O)O)cc1 (racemic) | 9100 nM | 1800 nM | 106% | – |
| O=C(O)C(Cc1ccccc1)Oc1ccc(CCc2ccccc2)cc1 (racemic) | 860 nM | 330 nM | 86% | – |
| O=C(O)C(Cc1ccccc1)Oc1ccc(C#Cc2ccccc2)cc1 (racemic) | 540 nM | 1360 nM | 36% | – |
| O=C(O)C(Cc1ccccc1)Oc1ccc(CCCc2ccccc2)cc1 (racemic) | – | 720 nM | 67% | – |
| O=C(O)C(Cc1ccccc1)Oc1ccc(CNc2ccccc2)cc1 (racemic) | 9400 nM | 1400 nM | 120% | – |
| O=C(O)C(Cc1ccccc1)Oc1ccc(Oc2ccccc2)cc1 (racemic) | 1210 nM | 60 nM | 126% | – |
| O=C(O)C(Cc1ccccc1)Oc1ccc(NCc2ccccc2)cc1 (racemic) | 13000 nM | 3600 nM | 78% | – |
| Cc1cccc(Nc2cc(Cl)nc(SCC(=O)O)n2)c1C [PIRINIXIC ACID] | – | – | – | EC50 [8]: Not Active |
| CN(CCOc1ccc(CC2SC(=O)NC2=O)cc1)c1ccccn1 (stereo not drawn) [ROSIGLITAZONE] | – | – | inactive | EC50 ([5]; hepg2): Not Active |
